Test results published in patent US4530791A, “β-Lactam antibiotics” (Kowa Co., Ltd., priority 1979, dated 1985).
In brackets after ≈: the same amount, converted by molar mass. Read-outs that look alike come from different tables or passages of the source.

Assays:
[1] = Stability: half-life period at different values of pH (ultraviolet absorption spectroscopy); format: physicochemical; conditions: read-out: half-life period t1/2 (converted)
Source text: (11) Stability: The half-life period at different values of pH are as follows: […]
pH 4.0-7.0: Mcllvaine's buffer solution (sodium phosphate-citric acid) pH 10.0: 0.1M sodium carbonate-sodium hydrogen carbonate buffer solution […]
Ultraviolet absorption spectroscopy
(9) Stability: The half-life period at different values of pH are as follows:
The solvent and measurement are the same as in the substance KA-6643-A.

[2] = test system: Serratia marcescens NHL; assay: Antibacterial spectrum (minimum inhibitory concentration); format: cell-based
Source text: (§1) The antibacterial spectra against various microorganisms are shown in Table 2 in comparison with those of aminobenzyl penicillin (AB-Pc) and cefoxitin (CFX).

[3] = test system: Staphylococcus aureus 209P JC-1; assay: as above; format: cell-based
Source text: as §1

[4] = test system: Proteus rettgari 13501; assay: as above; format: cell-based
Source text: as §1

[5] = test system: Klebsiella 32 (CS ase); assay: as above; format: cell-based
Source text: as §1

[6] = test system: Hafnia alvei 978; assay: as above; format: cell-based
Source text: as §1

[7] = test system: Excherichia coli NIHJ JC-2; assay: as above; format: cell-based
Source text: as §1

[8] = test system: Proteus morganii 3168; assay: as above; format: cell-based; conditions: Morganella morganii
Source text: as §1

[9] = test system: Klebsiella 25 (PC ase); assay: as above; format: cell-based
Source text: as §1

[10] = test system: Proteus inconstans Km115; assay: as above; format: cell-based; conditions: Providencia alcalifaciens
Source text: as §1

[11] = test system: Proteus vulgaris 874; assay: as above; format: cell-based
Source text: as §1

[12] = test system: Citrobacter 1 (PC ase); assay: as above; format: cell-based
Source text: as §1

[13] = test system: Staphylococcus epidermidis 1228; assay: as above; format: cell-based
Source text: as §1

[14] = test system: Citrobacter 24 (CS ase); assay: as above; format: cell-based
Source text: as §1

[15] = test system: Enterobacter cloacae 977; assay: as above; format: cell-based
Source text: as §1

[16] = test system: Pseudomonas aeruginosa 10490; assay: as above; format: cell-based
Source text: as §1

[17] = test system: Pseudomonas putida 5121; assay: as above; format: cell-based
Source text: as §1

[18] = test system: Bacillus subtilis 6633; assay: as above; format: cell-based
Source text: as §1

[19] = test system: Pseudomonas aeruginosa A-3; assay: as above; format: cell-based; conditions: A3
Source text: as §1

[20] = test system: Klebsiella pneumoniae 602; assay: as above; format: cell-based
Source text: as §1

[21] = test system: Enterobacter aerogenes 972; assay: as above; format: cell-based; conditions: Klebsiella aerogenes
Source text: as §1

[22] = test system: Escherichia coli EC-1 (PC ase I); assay: as above; format: cell-based
Source text: as §1

[23] = test system: Escherichia coli EC-59 (PC ase II); assay: as above; format: cell-based
Source text: as §1

[24] = test system: Escherichia coli EC-68 (PC ase IV); assay: as above; format: cell-based
Source text: as §1

[25] = Solubility in solvent; format: physicochemical
[26] = target: β-lactamase enzyme penicillin amidohydrolase EC 3.5.2.6; assay: β-Lactamase-inhibitory activity; format: biochemical; conditions: method of C. Reading and M. Cole
Procedure: When using as β-lactamase enzyme penicillin amidohydrolase EC 3.5.2.6 (Tokyo Chem. Syn. Co., Ltd.) derived from bacteria belonging to the genus Bacillus, the I50 value of the substance KA-6643-A was 0.5 ng/ml and that of the substance KA-6643-B was 12.8 ng/ml.
The I50 value was measured in accordance with the method of C. Reading and M. Cole [Antimicr. Agents and Chemoth. 11, 852-857 (1977)].

[27] = test system: Citrobacter 24 (CS ase); assay: Antibacterial activity-improving action against β-lactam-resistant bacteria (disc, inhibiting zone); format: cell-based; conditions: Medium including Citrobacter 24; AB-Pc 1 mg/ml, KA-6643-A or -B 10 γ/ml, alone or combined; 8 mm disc, 37° C., 18 hours
Procedure: (§2) In the Penassay agar (12 g of which was dissolved in 500 ml of distilled water, Kyoei Pharm. Co., Ltd.) were inoculated Escherichia coli EC-1 (PC ase) and citrobacter 24 (CS ase) which were β-lactamase-producing organisms, and 10 ml of the inoculated medium was flowed on a Petri dish of 9 cm in diameter and solidified to give a test medium.
(§3) In this agar medium were placed pulp discs of 8 mm in diameter into which was introduced with […] of aqueous solutions of antibiotics, respectively, followed by culturing at 37° C. for 18 hours and then measuring the diameter of an inhibiting zone around each disc.

[28] = test system: Escherichia coli EC-1 (PC ase); assay: as above; format: cell-based; conditions: Medium including E. coli EC-1; AB-Pc 1 mg/ml, KA-6643-A or -B 10 γ/ml, alone or combined; 8 mm disc, 37° C., 18 hours
Procedure: as §2, §3

[29] = cited from earlier work
[30] = mcilvaine's buffer, pH 4.0, Mcllvaine's buffer
[31] = mcilvaine's buffer, pH 6.0, Mcllvaine's buffer
[32] = mcilvaine's buffer, pH 7.0, Mcllvaine's buffer
[33] = pH 10.0, 0.1M sodium carbonate-sodium hydrogen carbonate buffer
[34] = organic solvents: acetone, chloroform, ethyl acetate, petroleum ether

SMILES | MIC [2] | MIC [3] | MIC [4] | MIC [5] | MIC [6] | MIC [7] | MIC [8] | MIC [9] | MIC [10] | MIC [11] | MIC [12] | MIC [13] | MIC [14] | MIC [15] | MIC [16] | MIC [17] | MIC [18] | MIC [19] | MIC [20] | MIC [21] | other results
CC(=O)NC=C[S+]([O-])C1=C(C(=O)O)N2C(=O)C(C(C)(C)OS(=O)(=O)O)C2C1 (stereo not shown) [KA-6643-B] | 6.25 mg/L (≈ 14.8 µM) | 6.25 mg/L (≈ 14.8 µM) | 50 mg/L (≈ 118 µM) | 12.5 mg/L (≈ 29.6 µM) | 6.25 mg/L (≈ 14.8 µM) | 1.56 mg/L (≈ 3.69 µM) | 12.5 mg/L (≈ 29.6 µM) | 6.25 mg/L (≈ 14.8 µM) | 12.5 mg/L (≈ 29.6 µM) | 12.5 mg/L (≈ 29.6 µM) | 6.25 mg/L (≈ 14.8 µM) | 6.25 mg/L (≈ 14.8 µM) | 12.5 mg/L (≈ 29.6 µM) | 6.25 mg/L (≈ 14.8 µM) | 25 mg/L (≈ 59.2 µM) | 100 mg/L (≈ 237 µM) | 6.25 mg/L (≈ 14.8 µM) | 50 mg/L (≈ 118 µM) | 6.25 mg/L (≈ 14.8 µM) | 3.13 mg/L (≈ 7.41 µM) | half-life [1, 30]: 21.8 h; half-life [1, 31]: 210 h; half-life [1, 32]: 170 h; half-life ([1]; pH 7.8): 130 h; half-life [1, 33]: 7.9 h; MIC [22]: 3.13 mg/L (≈ 7.41 µM); MIC [23]: 1.56 mg/L (≈ 3.69 µM); MIC [24]: 3.13 mg/L (≈ 7.41 µM); Solubility in solvent [25, 34]: substantially insoluble; Solubility in solvent ([25]; water): Readily soluble; I50 value [26]: 12.8 ng/mL
CO[C@@]1(NC(=O)Cc2cccs2)C(=O)N2C(C(=O)O)=C(COC(N)=O)CS[C@@H]21 [CFX, cefoxitin, reference compound] | 12.5 mg/L (≈ 29.2 µM) | 1.56 mg/L (≈ 3.65 µM) | 1.56 mg/L (≈ 3.65 µM) | > 100 mg/L | 6.25 mg/L (≈ 14.6 µM) | 6.25 mg/L (≈ 14.6 µM) | 6.25 mg/L (≈ 14.6 µM) | 6.25 mg/L (≈ 14.6 µM) | 6.25 mg/L (≈ 14.6 µM) | 6.25 mg/L (≈ 14.6 µM) | > 100 mg/L | 1.56 mg/L (≈ 3.65 µM) | > 100 mg/L | > 100 mg/L | > 100 mg/L | > 100 mg/L | 1.56 mg/L (≈ 3.65 µM) | > 100 mg/L | 0.78 mg/L (≈ 1.82 µM) | > 100 mg/L | MIC [22]: 3.13 mg/L (≈ 7.32 µM); MIC [23]: 6.25 mg/L (≈ 14.6 µM); MIC [24]: 6.25 mg/L (≈ 14.6 µM)
CC(=O)NC=C[S+]([O-])C1=C(C(=O)O)N2C(=O)C(C(C)(C)O)C2C1 (stereo not shown) [KA-6643-A] | 0.2 mg/L (≈ 0.584 µM) | 0.39 mg/L (≈ 1.14 µM) | 1.56 mg/L (≈ 4.56 µM) | 3.13 mg/L (≈ 9.14 µM) | 0.2 mg/L (≈ 0.584 µM) | 0.05 mg/L (≈ 0.146 µM) | 0.39 mg/L (≈ 1.14 µM) | 0.78 mg/L (≈ 2.28 µM) | 0.78 mg/L (≈ 2.28 µM) | 0.39 mg/L (≈ 1.14 µM) | 0.78 mg/L (≈ 2.28 µM) | 0.78 mg/L (≈ 2.28 µM) | 1.56 mg/L (≈ 4.56 µM) | 0.78 mg/L (≈ 2.28 µM) | 6.25 mg/L (≈ 18.3 µM) | 1.56 mg/L (≈ 4.56 µM) | 0.2 mg/L (≈ 0.584 µM) | 6.25 mg/L (≈ 18.3 µM) | 0.2 mg/L (≈ 0.584 µM) | 0.1 mg/L (≈ 0.292 µM) | half-life [1, 30]: 33 h; half-life [1, 31]: 144 h; half-life [1, 32]: 187 h; half-life ([1]; pH 7.8): 110 h; half-life [1, 33]: 2.8 h; Diameter of inhibiting zone [27]: 16.0 mm; Diameter of inhibiting zone [28]: 18.0 mm; MIC [22]: 0.2 mg/L (≈ 0.584 µM); MIC [23]: 0.05 mg/L (≈ 0.146 µM); MIC [24]: 0.05 mg/L (≈ 0.146 µM); Solubility in solvent [25, 34]: substantially insoluble; Solubility in solvent ([25]; water): Readily soluble; I50 value [26]: 0.5 ng/mL
CC1(C)S[C@@H]2[C@H](NC(=O)[C@H](N)c3ccccc3)C(=O)N2[C@H]1C(=O)O [AB-Pc, aminobenzyl penicillin, reference compound] | 50 mg/L (≈ 143 µM) | 0.05 mg/L (≈ 0.143 µM) | 0.2 mg/L (≈ 0.572 µM) | > 100 mg/L | 50 mg/L (≈ 143 µM) | 6.25 mg/L (≈ 17.9 µM) | > 100 mg/L | > 100 mg/L | 100 mg/L (≈ 286 µM) | > 100 mg/L | > 100 mg/L | 0.78 mg/L (≈ 2.23 µM) | > 100 mg/L | 100 mg/L (≈ 286 µM) | 100 mg/L (≈ 286 µM) | > 100 mg/L | ≤ 0.025 mg/L | > 100 mg/L | 12.5 mg/L (≈ 35.8 µM) | 6.25 mg/L (≈ 17.9 µM) | MIC [22]: > 100 mg/L; MIC [23]: > 100 mg/L; MIC [24]: > 100 mg/L
CC(=O)N/C=C/[S+]([O-])C1=C(C(=O)O)N2C(=O)C(C(C)OS(=O)(=O)O)C2C1 (stereo not shown) [MM-4550] |  |  |  |  |  |  |  |  |  |  |  |  |  |  |  |  |  |  |  |  | half-life period t1/2 ([29]; pH 4): 5.5 h; half-life period t1/2 ([29]; pH 6): 18 h; half-life period t1/2 ([29]; pH 7): 10.5 h; half-life period t1/2 ([29]; pH 7.8): 8.5 h; half-life period t1/2 ([29]; pH 10): 19 h
